Source: patent publication US6069235A, “Method for carbohydrate engineering of glycoproteins” (Monsanto Company, priority 1994, dated 2000)

Legend:
[1] = tested on: CHO-K1 line 2.14 cells secreting hsCD2; assay: Quantitative assay of hsCD2 expression level in line 2.14 cells cultured with NB-DNJ; assay type: cell-based, Chinese hamster; conditions: 0.5-2 mM NB-DNJ
Protocol: For the expression of hsCD2, the Xba I-Bam H1 fragment was sub-cloned into the polylinker of pEE6.hcmv-GS (Bebbington and Hentschel, 1987; Davis et al., 1990). The expression construct (20 μg) was transfected with calcium phosphate into CHO-K1 cells and methionine sulfoximine-resistant clones were selected as described previously (Davis et al., 1990). To detect expression the conventional solid-phase, radioactive inhibition binding assay (Barclay and Ward, 1982) was used. This utilized human sCD2 domain 1 expressed as a fusion protein as described for rat CD2 domain 1 (Driscoll et al., 1991) adsorbed onto vinyl microtitre plates as a binding target and monitored inhibition of the binding of the anti-human CD2 mAb, X3 mAb to the plate; the bound mAb was detected with [I^125 ]-labelled rabbit anti-mouse F(ab'). For large scale production the highest-expressing cell line (line 2.14) was grown to confluence in cell factories (Nunc) and sodium butyrate was then added to a final concentration of 2 mM. The cultures were then left for a further 3-4 weeks prior to harvesting.
In initial optimization tests with NB-DNJ, 2×500 cm^2 flasks (Nunc) were seeded with line 2.14 cells in 75 ml glutamine-free medium GMEM-S (Gibco Ltd, Glasgow, U.K.) 10% Fetal Calf Serum (FCS) containing NB-DNJ at 0 mM, 0.5 mM, 1 mM, 1.5 mM or 2 mM. […]

glucosidase I = target: T1, glucosidase I (Cricetulus griseus, UniProt A0A9J7K0I4); assay: Endo H sensitivity of hsCD2 secreted by transfected CHO-K1 cells (line 2.14) cultured with NB-DNJ; assay type: cell-based, Chinese hamster
T1 construct: endogenous in cells; host or cells: CHO-K1, transfected line 2.14 (the transfected gene is hsCD2, not glucosidase I)
T1 sequence (A0A9J7K0I4 1-834): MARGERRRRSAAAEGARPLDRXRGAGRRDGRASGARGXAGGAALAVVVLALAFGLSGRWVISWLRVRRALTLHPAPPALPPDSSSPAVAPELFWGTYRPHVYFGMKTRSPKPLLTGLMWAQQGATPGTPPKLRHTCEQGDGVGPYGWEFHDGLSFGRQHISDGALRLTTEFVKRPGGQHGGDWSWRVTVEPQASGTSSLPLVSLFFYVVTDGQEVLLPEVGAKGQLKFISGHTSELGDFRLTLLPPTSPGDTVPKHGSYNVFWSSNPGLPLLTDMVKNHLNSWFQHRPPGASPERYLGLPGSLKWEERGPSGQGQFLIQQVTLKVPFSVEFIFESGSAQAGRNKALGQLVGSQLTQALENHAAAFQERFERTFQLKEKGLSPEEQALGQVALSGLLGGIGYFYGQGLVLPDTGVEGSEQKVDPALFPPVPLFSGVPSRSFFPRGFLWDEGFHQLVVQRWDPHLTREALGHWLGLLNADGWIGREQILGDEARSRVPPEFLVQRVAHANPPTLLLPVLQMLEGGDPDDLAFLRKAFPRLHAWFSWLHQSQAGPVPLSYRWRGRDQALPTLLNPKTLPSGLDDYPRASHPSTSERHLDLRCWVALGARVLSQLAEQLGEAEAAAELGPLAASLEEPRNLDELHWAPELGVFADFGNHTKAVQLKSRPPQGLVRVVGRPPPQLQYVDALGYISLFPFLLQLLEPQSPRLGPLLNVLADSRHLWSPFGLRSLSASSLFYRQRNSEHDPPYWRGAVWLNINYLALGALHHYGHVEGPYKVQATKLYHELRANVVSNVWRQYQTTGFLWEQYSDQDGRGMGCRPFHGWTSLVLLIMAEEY
Protocol: In initial optimization tests with NB-DNJ, 2×500 cm^2 flasks (Nunc) were seeded with line 2.14 cells in 75 ml glutamine-free medium GMEM-S (Gibco Ltd, Glasgow, U.K.) 10% Fetal Calf Serum (FCS) containing NB-DNJ at 0 mM, 0.5 mM, 1 mM, 1.5 mM or 2 mM. After 6 days 100 mls of CB2, 10% FCS containing sodium butyrate to give a final concentration of 2 mM and NB-DNJ at 0, 0.5 mM, 1 mM, 1.5 mM or 2 mM was added. Ten days after the addition of the butyrate, 0.5 ml samples of the supernatant were taken for comparison of secretion levels. The cultures were left for a total of 15 days before harvesting the supernatants. When large amounts of endo H treated hsCD2 were required for crystallization, the cells were grown to confluence in cell factories as described above and NB-DNJ was added with the sodium butyrate to a final concentration of 1.5 mM. These cultures were also left for a further 3-4 weeks prior to harvesting.
For analysis of endo H sensitivity after preparation of the hsCD2 in the presence of various concentrations of NB-DNJ, 10 μg aliquots of the purified glycoproteins were incubated with 4, 20 or 100 mU/ml endo H-(Boehringer Mannheim) in 30 μl of 100 mM sodium acetate, pH 5.2. One unit (U) of endo H is the enzyme activity which hydrolyzes one micromole […] of dansyl-Asn-(GlcNAc)2 -(Man)5 within one minute at 37° C., pH 5.5. After incubation overnight at 370 the digested samples were boiled in 1% SDS under reducing conditions prior to electrophoresis in 15% SDS-PAGE gels. For large-scale endo H treatment of hsCD2 for crystallization tests, 4 mgs of the purified glycoprotein was concentrated to 1-2 mg/ml in 0.1 M sodium acetate, pH 5.2, and then digested with 100 mU/ml endo H overnight at 370. […] The eluting protein was determined to be essentially free of contaminating hsCD2 bearing non-endo H sensitive oligosaccharides by SDS-PAGE on a 15% acrylamide gel. […]

CCCCN1C[C@H](O)[C@@H](O)[C@H](O)[C@H]1CO [NB-DNJ, N-butyl deoxynojirimycin] was tested, and the “reduction in expression of hsCD2” value [1] was “three- to four-fold reduction in expression”, the “oligosaccharides of hsCD2 converted to endo H sensitive structures” value (glucosidase I; N-butyldeoxynojirimycin added to cultures of non-mutant CHO cells) was over 85% and the “inhibition of glucosidase I (judged by endo H sensitivity of hsCD2)” value (glucosidase I; NB-DNJ 1.5 mM in culture of line 2.14 CHO cells) was “complete”. For the same compound, the “hsCD2 remaining endo H resistant (densitometric analysis of gel)” value (glucosidase I; highest concentration of NB-DNJ (2 mM)) was “approximately 15%”.
